Earlier results in patent US12285521B2, “Pharmaceutical formulation” (Klaria Pharma Holding AB, priority 2016, dated 2025).

Tests used:
[1] = system: migraine; conditions: subcutaneous administration, 6 mg sumatriptan
[2] = system: migraine; conditions: to be achieved within 60 minutes after dosing

For `CNS(=O)(=O)Cc1ccc2[nH]cc(CCN(C)C)c2c1` [sumatriptan], the “people with pain reduced from moderate or severe to none within two hours” value [1] is given as ~60%, the “plasma level for the most reliable migraine-relieving effect” value [2] is given as “over 9.44 ng/mL” and the “time of maximum plasma concentration” value (after intranasal administration) is given as 1 to 1.5 h. The mean intranasal bioavailability (intranasal, after a 20 mg dose) was 15.8% and the mean maximum concentration (intranasal, after a 20 mg dose) was 12.9 ng/mL.
